Results reported in patent publication US4897417A, “Prodrugs of 3,4-hydroxy benzoyloxypropanolamines” (E. I. Du Pont de Nemours & Co., priority 1988, dated 1990).

How the values were obtained:
[1] = system: isoproterenol-induced increase in heart rate; test: Effect on systemic beta-blockade upon topical administration (isoproterenol-induced heart rate in anesthetized dogs); assay type: in vivo, Mongrel dogs; conditions: for HR, ISO only: 0 min (dose), isoproterenol only, before treatment; for HR, ISO only / HR, baseline: 0.125% group; for HR: 0.125% topical, isoproterenol infusion 0.5 μg/kg/min; for HR, baseline: -30 min, before isoproterenol and before treatment; for systemic beta-blockade of isoproterenol-induced increase in heart rate / effect on the heart rate responses to isoproterenol: in words, 50 μL, 0.125% solution; for effect on the heart rate responses to isoproterenol: topical; for drop in heart rate: within 60 minutes, 0.125% concentration
Description: Mongrel dogs were anesthetized and control readings were made at -45 and -30 minutes. Following the -30 minute reading, an infusion of isoproterenol (0.5 μg/kg/min) was begun and maintained during the course of the experiment. Two readings of pretreatment isoproterenol responses were made at […] and at zero minutes. At zero minutes, a 50 μL sample of test compound was administered topically. This dose was repeated at 50, 60 and 90 minutes and the animal was monitored for heart rate for 180 minutes following the first application. Heart rate was obtained directly from the strip chart recording.

[2] = system: isoproterenol-induced increase in heart rate; test: as above; assay type: in vivo, Mongrel dogs; conditions: 120 min (dose) post-treatment, 0.125% topical, isoproterenol infusion 0.5 μg/kg/min
[3] = Ocular bioavailability in rabbits (aqueous humor levels after topical corneal dosing); assay type: in vivo, New Zealand White Rabbits; conditions: for area under the AH concentration time curve (AUC0-240'): 50 μL of 0.25% Timolol or 0.5% compound 8d; for absorption in the eye: topical
Description: The ocular bioavailability of Timolol and compound 8d (dipivaloyl ester prodrug of compound 9d) was evaluated in New Zealand White Rabbits. Fifty μL of a solution of 0.25% Timolol or 0.5% compound 8d (both in the same vehicle) were administered onto the cornea of both eyes of 48 rabbits (24 rabbits/compound). At 5, 15, 30, 60, 120, 180, 240, and 360 minutes after dosing, 3 rabbits (6 eyes) per compound were killed. Aqueous humor (AH), was quickly removed from the eyes, weighed and processed to determine tissue levels of Timolol or compound 8d and compound 9d.

| area under the AH concentration time curve (AUC0-240') ([3]; aqueous humor, rabbits) | AUC of compound 8d in AH relative to AUC of Timolol in AH ([3]; aqueous humor, rabbits, after 0.25% Timolol or 0.5% compound 8d) [×] | absorption in the eye ([3]; in words, rabbits) | stability in rabbit ocular tissues ([3]; in words) | Compound | HR, ISO only [1] [bpm] | HR ([1]; 15 min post-treatment) [bpm] | HR ([1]; 30 min post-treatment) [bpm] | HR ([1]; 45 min post-treatment) [bpm] | HR ([1]; 60 min (dose) post-treatment) [bpm] | HR ([1]; 90 min post-treatment) [bpm] | HR ([1]; 150 min post-treatment) [bpm] | HR, baseline [1] [bpm] | systemic beta-blockade of isoproterenol-induced increase in heart rate [1] | effect on the heart rate responses to isoproterenol [1] | drop in heart rate [1] [bpm] | HR [2] [bpm] | delivery of compound 9d to the internal structures of the eye ([3]; in words, rabbits, topical compound 8d) |
| --- | --- | --- | --- | --- | --- | --- | --- | --- | --- | --- | --- | --- | --- | --- | --- | --- | --- |
| – | – | – | – | CC(=O)NCC(C)(C)NCC(O)COC(=O)c1cc(OC(=O)C(C)(C)C)c(OC(=O)C(C)(C)C)cc1C (stereo not drawn) [Compound 8a] | 215 | 214 | 213 | 210 | 208 | 207 | 202 | 152 | no systemic beta-blockade | no effect | 2 | 203 | – |
| – | – | – | – | Cc1cc(OC(=O)C(C)(C)C)c(OC(=O)C(C)(C)C)cc1C(=O)OCC(O)CNC(C)(C)CNC(N)=O (stereo not drawn) [Compound 8c] | 212 | 212 | 210 | 210 | 210 | 210 | 212 | 158 | no systemic beta-blockade | no effect | 7 | 210 | – |
| 27,377 ng/100 μL/min | 3 | rapidly absorbed in the eye | – | Cc1cc(OC(=O)C(C)(C)C)c(OC(=O)C(C)(C)C)cc1C(=O)OCC(O)CNC(C)(C)CNC(=O)C1CCOC1 (stereo not drawn) [Compound 8d] | – | – | – | – | – | – | – | – | – | – | – | – | effectively delivers compound 9d to the internal structures of the eye |
| – | – | – | stable in rabbit ocular tissues | Cc1cc(O)c(O)cc1C(=O)OCC(O)CNC(C)(C)CNC(=O)C1CCOC1 (stereo not drawn) [Compound 9d] | – | – | – | – | – | – | – | – | – | – | – | – | – |
| 9,022 ng/100 μL/min | – | rapidly absorbed in the eye | – | CC(C)(C)NC[C@H](O)COc1nsnc1N1CCOCC1 [Timolol, reference compound] | 213 | 198 | 185 | 174 | 174 | 179 | 192 | 142 | – | significant inhibitory effect | 39 | 183 | – |
